According to patent publication US6433025B1, “Method for retarding and preventing sunburn by UV light” (Cyanotech Corporation, priority 2000, dated 2002):

Key:
[1] = tested on: interleukin-1 alpha and tumor necrosis factor alpha; conditions: mouse, in vivo; cited from earlier work
SKH1 hairless mice = conditions: cited from earlier work
sunburn by UVR exposure = experiment: Example 1: oral astaxanthin soft gel capsules in a subject with extreme propensity for sunburns; type: in vivo, human
Description: Haematococcus algae meal containing 1.5% astaxanthin was thoroughly mixed with safflower oil such that the resulting suspension contained 2.0 mg of pure astaxanthin per gram of safflower oil suspension. 500 mg soft gel capsules were produced from the safflower oil suspension such that each soft gel capsule contained 1.0 mg of pure astaxanthin.
One individual was an adult with extreme propensity for sunburns. The subject had come to Hawaii for vacation and had already sunburned on a 10 minute walk with SPF 50 sunblock cream, long pants and sleeves. They then began taking 2 milligrams of astaxanthin of the above formulation per day. On the eleventh day, they took another walk in the afternoon, on a cloudy day, with long pants, a tee shirt, but without a hat or sunglasses. While 1 mile away from their condo, the clouds dissipated and they were exposed to the full sun while walking back.

SKH hairless mice = conditions: fed as sole carotenoid source; cited from earlier work
human blood = conditions: response to T-dependent stimuli; cited from earlier work
rat kidney fibroblasts = conditions: cited from earlier work; for level necessary to protect against UV-induced loss of catalase (CAT) / level required to protect against loss of SOD activity / level that prevented the UVA-induced increase in TBARS: UVA light for four hours
primed spleen cells = conditions: cited from earlier work
[2] = tested on: sunblister sores and sun sensitivity; experiment: Example 2: oral astaxanthin in a construction worker with sunblister sores; type: in vivo, human; conditions: 4 milligrams per day oral
Text: An adult subject is a construction worker in Hawaii and is routinely exposed to the UVR of the sun while working outside. They were often affected by sunblister sores breaking out on their arm after a long day of sun exposure. The individual began taking 4 milligrams of astaxanthin per day derived from Haematococcus algae (as described in the above Example 1). Two milligrams of astaxanthin were consumed with lunch and 2 milligrams with dinner.
The individual stopped taking the astaxanthin formulation for two weeks and the blisters and sun sensitivity returned.

vitamin E-deficient rats = conditions: rat, in vivo; cited from earlier work
[3] = tested on: basal-cell and squamous-cell carcinomas; conditions: 4.5 years, cited from earlier work
human sunburn response = conditions: oral supplementation, normal individuals; cited from earlier work
UV-induced erythema = conditions: cited from earlier work
laboratory animals = conditions: applied up to 8 hours following UVB exposure; cited from earlier work
sunburn cells = conditions: in vivo; cited from earlier work
hairless mouse = conditions: repeated topical treatment; cited from earlier work
skin of volunteers = conditions: 10% solution applied to the skin, cited from earlier work

## CC1=C(/C=C/C(C)=C/C=C/C(C)=C/C=C/C=C(C)/C=C/C=C(C)/C=C/C2=C(C)C(=O)[C@@H](O)CC2(C)C)C(C)(C)C[C@H](O)C1=O [astaxanthin]
[1]
  release of interleukin-1 alpha and tumor necrosis factor alpha: enhances the release of interleukin-1 alpha and tumor necrosis factor alpha in mice to a greater degree than canthaxanthin and beta-carotene
SKH1 hairless mice; astaxanthin alone or in combination with retinol
  prevention of increases of free putrescine after irradiation: remarkably effective
SKH1 hairless mice; diet 10-ppm astaxanthin, 4 months, ultraviolet light
  increase of epidermal putrescine after irradiation: 1.5 fold
SKH1 hairless mice; groups fed astaxanthin
  spermidine and spermine concentrations: significantly lower
SKH1 hairless mice; mouse, in vivo
  inhibitory effect on putrescine accumulation compared with dietary retinol: stronger inhibitory effect
Sunburn by UVR exposure; adult female, 2 milligrams of astaxanthin per day oral, eleventh day
  sunburn after exposure to the full sun: not affected by the UVR exposure
Sunburn by UVR exposure; remainder of vacation, while taking the astaxanthin supplement
  sunburn effects while wearing shorts outside: without sunburn effects
SKH hairless mice
  probability of epidermal tumors: tended to have higher probability of epidermal tumors
Human blood
  production of IgM, IgA and IgG antibodies: enhances
Rat kidney fibroblasts
  level necessary to protect against UV-induced loss of catalase (CAT): 5 nM
  level required to protect against loss of SOD activity: 5 nM
  level that prevented the UVA-induced increase in TBARS: 1 nM
  protection against UVA light-induced oxidative stress compared to lutein and beta-carotene: superior protection
Primed spleen cells
  number of antibody-secreting cells from primed spleen cells: increased
Primed spleen cells; even when suboptimal amounts of antigen were present
  T-helper cell antibody production: enhanced
[2]; after 1 month
  sensitivity to the sunlight: noticeably improved
  sunblister sores: all of their blisters were healed
[2]; after 2 weeks
  sunblister sores: blisters began to heal
[2]; adult male, after 2 weeks
  sensitivity to sun exposure: not sensitive to the sun exposure
Vitamin E-deficient rats
  mitochondrial damage caused by lipid peroxidation: protects the mitochondria from damage

## CC1=C(/C=C/C(C)=C/C=C/C(C)=C/C=C/C=C(C)/C=C/C=C(C)/C=C/C2=C(C)CCCC2(C)C)C(C)(C)CCC1 [beta-carotene]
[3]; 30 mg per day
  incidence of basal-cell or squamous-cell carcinoma versus placebo: no significant difference
[3]
  incidence of basal-cell carcinoma in terms of number of tumors: no effect
SKH hairless mice
  probability of epidermal tumors: tended to have higher probability of epidermal tumors
Rat kidney fibroblasts
  level necessary to protect against UV-induced loss of catalase (CAT): 1000 nM
  level required to protect against loss of SOD activity: 500 nM
  level that prevented the UVA-induced increase in TBARS: 100 nM
Primed spleen cells
  number of antibody-secreting cells from primed spleen cells: not
Human sunburn response
  severity of cutaneous photodamage: unlikely to modify

## COc1ccc2[nH]cc(CCNC(C)=O)c2c1 [melatonin]
UV-induced erythema; applied after UV irradiation
  protective effects against UV-induced erythema: no significant protective effects
UV-induced erythema; topical, 15 min before UV irradiation
  development of UV-induced erythema: almost completely suppress

## CC(=O)Oc1c(C)c(C)c2c(c1C)CCC(C)(CCC[C@H](C)CCC[C@H](C)CCCC(C)C)O2 (stereo partly drawn) [vitamin E acetate]
Laboratory animals
  inflammation, skin sensitivity and skin damage: prevented inflammation, skin sensitivity and skin damage

## CC1=C[C@H](O)CC(C)(C)[C@H]1/C=C/C(C)=C/C=C/C(C)=C/C=C/C=C(C)/C=C/C=C(C)/C=C/C1=C(C)C[C@@H](O)CC1(C)C [lutein]
Rat kidney fibroblasts
  level necessary to protect against UV-induced loss of catalase (CAT): 100 nM
  level required to protect against loss of SOD activity: 1000 nM
  level that prevented the UVA-induced increase in TBARS: 1000 nM
Primed spleen cells
  number of antibody-secreting cells from primed spleen cells: not

## tocopherol
Sunburn cells
  number of sunburn cells: decreased

## O=C(OOC(=O)c1ccccc1)c1ccccc1 [benzoyl peroxide]
Hairless mouse
  cutaneous effects of repeated administration: produces skin changes in the hairless mouse that qualitatively resemble those produced by ultraviolet B

## CC(C)=CCC/C(C)=C/C=C/C(C)=C/C=C/C(C)=C/C=C/C=C(C)/C=C/C=C(C)/C=C/C=C(\C)CCC=C(C)C [lycopene]
SKH hairless mice
  probability of epidermal tumors: tended to have higher probability of epidermal tumors
Primed spleen cells
  number of antibody-secreting cells from primed spleen cells: not

## O=C1O[C@H]([C@@H](O)CO)C(O)=C1O [vitamin C]
Skin of volunteers; average
  increase in amount of ultraviolet light needed to burn: 22%
Skin of volunteers
  severity of burns: half of the volunteers experienced much less severe bums

## CC1=C(/C=C/C(C)=C/C=C/C(C)=C/C=C/C=C(C)/C=C/C=C(C)/C=C/C2=C(C)C(=O)CCC2(C)C)C(C)(C)CCC1=O [canthaxanthin]
Primed spleen cells
  number of antibody-secreting cells from primed spleen cells: not
